Laboratory results taken from paper PMC9025560, “A Comparison of Evans Blue and 4-(p-Iodophenyl)butyryl Albumin Binding Moieties on an Integrin αvβ6 Binding Peptide” (Pharmaceutics, 2022).
Where two headings read alike, the source gives them in different places.

Key:
[1] = Blocking biodistribution with pre-administered metal free peptide; format: in vivo, mice; conditions: female, athymic nu/nu-nude, mouse, intravenous, total radioactivity, 4 h p.i., metal free peptide 10 min before, n = 1
Procedure: For blocking studies, the metal free peptides 1 or 2 (~220 nmol, 1.3 mg in 100 μL PBS), respectively, were injected i.v. (n = 1/peptide) as described above 10 min prior to the injection of matching radiolabeled [^64Cu]1 or [^64Cu]2 (3.7–5.55 MBq, 100 μL PBS). After a conscious 4 h uptake period, the animals were anesthetized, sacrificed, tissues rapidly collected, and analyzed as described above. Decay-corrected radioactivity concentrations are expressed as a percentage of injected dose per gram of tissue (% ID/g) (Figure S23).

[2] = Stability in human serum at 37 °C; format: in vitro ADME; conditions: read-out: Stability in human serum, % intact
Procedure: (§1) For serum stability, mouse serum or human serum (0.5 mL, both purchased from Sigma-Aldrich) was combined with an aliquot of each of the peptides [^64Cu]1 and [^64Cu]2 (≤25 μL, 14.8–22.2 MBq) and incubated at 37 °C. At each time point (1, 4, and 24 h) an aliquot (50–200 μL) was taken, proteins precipitated with ethanol, and removed by pelleting at 1500 (RCF) for 4 min. The ethanol solution was diluted with water (1 mL) and analyzed by RP-HPLC as previously described.

BxPC-3 xenograft tumors = assay: Biodistribution in mice bearing BxPC-3 xenograft tumors; format: in vivo; conditions: for Kidneys uptake: i.v.
Method in brief: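 Female athymic nu/nu mice bearing subcutaneous BxPC-3 (integrin αvβ6-positive) flank tumors 0.5–1 cm, given [^64Cu]-labelled peptides (3.7–5.55 MBq) i.v. via tail vein. Tissues taken at 4, 24, 48 and 72 h p.i. and γ-counted; decay-corrected uptake reported as % ID/g, mean ± SD.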

[3] = Stability in mouse serum at 37 °C; format: in vitro ADME; conditions: mouse, mouse serum, read-out: Stability in mouse serum, % intact
Procedure: as §1

Which tissue uptake at 4 h ([1]; BxPC-3 tumor, read-out: BxPC-3 Tumor uptake, blocked) does the source give for `Cc1cc(-c2ccc(NC(=O)CCC(=O)NCCCC[C@H](NC(=O)CN3CCN(CC(=O)O)CCN(CC(=O)O)CCN(CC(=O)O)CC3)C(=O)NCCOCCOCCOCCOCCOCCOCCOCCOCCOCCOCCOCCOCCOCCOCCOCCOCCOCCOCCOCCOCCOCCOCCOCCOCCOCCOCCOCCOCCC(=O)N[C@@H](CC(N)=O)C(=O)N[C@@H](C)C(=O)N[C@H](C(=O)N3CCC[C@H]3C(=O)N[C@@H](CC(N)=O)C(=O)N[C@@H](CC(C)C)C(=O)N[C@@H](CCCNC(=N)N)C(=O)NCC(=O)N[C@@H](CC(=O)O)C(=O)N[C@@H](CC(C)C)C(=O)N[C@@H](CCC(N)=O)C(=O)N[C@H](C(=O)N[C@@H](CC(C)C)C(=O)N[C@@H](C)C(=O)N[C@@H](CCC(N)=O)C(=O)N[C@@H](CCCNC(=N)N)C(=O)N[C@H](C(=O)N[C@@H](C)C(=O)N[C@@H](CCCNC(=N)N)C(=O)N[C@H](C(=O)NCCOCCOCCOCCOCCOCCOCCOCCOCCOCCOCCOCCOCCOCCOCCOCCOCCOCCOCCOCCOCCOCCOCCOCCOCCOCCOCCOCCOCCC(N)=O)[C@@H](C)O)C(C)C)C(C)C)C(C)C)c(C)c2)ccc1N=Nc1ccc2c(S(=O)(=O)O)cc(S(=O)(=O)O)c(N)c2c1O` [[^64Cu]1, [^64Cu]Cu DOTA-EB-αvβ6-BP, metal not drawn] here?
The tissue uptake at 4 h was 2.91 %ID/g.

And the tissue uptake at 4 h ([1]; blood, read-out: Blood uptake, blocked)?
The tissue uptake at 4 h was 2.56 %ID/g.

And the tissue uptake at 4 h ([1]; bone, read-out: Bone uptake, blocked)?
The tissue uptake at 4 h was 0.43 %ID/g.

What about the tissue uptake at 4 h ([1]; brain, read-out: Brain uptake, blocked) of the same compound?
The tissue uptake at 4 h was 0.07 %ID/g.

What about the tissue uptake at 4 h ([1]; gall bladder, read-out: Gall Bladder uptake, blocked) of the same compound?
The tissue uptake at 4 h was 1.96 %ID/g.

What about the tissue uptake at 4 h ([1]; heart, read-out: Heart uptake, blocked) of the same compound?
The tissue uptake at 4 h was 0.96 %ID/g.

What about the tissue uptake at 4 h ([1]; kidneys, read-out: Kidneys uptake, blocked) of the same compound?
The tissue uptake at 4 h was 71.6 %ID/g.

What about the tissue uptake at 4 h ([1]; large intestines, read-out: Lg. Intestines uptake, blocked) of the same compound?
The tissue uptake at 4 h was 0.9 %ID/g.

And the tissue uptake at 4 h ([1]; liver, read-out: Liver uptake, blocked)?
Its tissue uptake at 4 h is 1.92 %ID/g.

And the tissue uptake at 4 h ([1]; lung, read-out: Lung uptake, blocked)?
The tissue uptake at 4 h was 1.65 %ID/g.

What about the tissue uptake at 4 h ([1]; muscle, read-out: Muscle uptake, blocked) of the same compound?
Its tissue uptake at 4 h is 0.41 %ID/g.

What about the tissue uptake at 4 h ([1]; pancreas, read-out: Pancreas uptake, blocked) of the same compound?
Its tissue uptake at 4 h is 0.39 %ID/g.

And the tissue uptake at 4 h ([1]; skin, read-out: Skin uptake, blocked)?
Its tissue uptake at 4 h is 1.12 %ID/g.

What about the tissue uptake at 4 h ([1]; small intestines, read-out: Sm. Intestines uptake, blocked) of the same compound?
The tissue uptake at 4 h was 0.91 %ID/g.

What about the tissue uptake at 4 h ([1]; spleen, read-out: Spleen uptake, blocked) of the same compound?
The tissue uptake at 4 h was 0.85 %ID/g.

What about the tissue uptake at 4 h ([1]; stomach, read-out: Stomach uptake, blocked) of the same compound?
The tissue uptake at 4 h was 0.72 %ID/g.

What about the remaining at 1 h ([2]; 1 h) of the same compound?
The remaining at 1 h was 99%.

What about the remaining at 4 h ([2]; 4 h) of the same compound?
Its remaining at 4 h is 89%.

And the remaining at 24 h ([2]; 24 h)?
Its remaining at 24 h is 76%.

What about the Tumor-Blood ratio (BxPC-3 xenograft tumors; 4 h p.i.) of the same compound?
Its Tumor-Blood ratio is > 4/1.

And the Tumor-Kidney ratio (BxPC-3 xenograft tumors; 4 h p.i.)?
Its Tumor-Kidney ratio is 0.07 ± 0.003.

And the “Tumor-Lg Intestines ratio” value (BxPC-3 xenograft tumors; 4 h p.i.)?
The value was 1.28 ± 0.12.

What about the Tumor-Liver ratio (BxPC-3 xenograft tumors; 4 h p.i.) of the same compound?
The Tumor-Liver ratio was 3.2–4.9.

What about the Tumor-Muscle ratio (BxPC-3 xenograft tumors; 4 h p.i.) of the same compound?
The Tumor-Muscle ratio was > 8/1.

What about the “Tumor-Sm Intestines ratio” value (BxPC-3 xenograft tumors; 4 h p.i.) of the same compound?
The value was 1.12 ± 0.05.

What about the Tumor-Stomach ratio (BxPC-3 xenograft tumors; 4 h p.i.) of the same compound?
Its Tumor-Stomach ratio is 0.83 ± 0.03.

And the Kidneys uptake (BxPC-3 xenograft tumors; 4 h p.i.)?
The Kidneys uptake was 75.5 ± 7.3 % ID/g.

What about the Tumor-Blood ratio (BxPC-3 xenograft tumors; 4 h p.i., listed as [64Cu]1) of the same compound?
Its Tumor-Blood ratio is 4.30 ± 1.47.

And the Tumor-Liver ratio (BxPC-3 xenograft tumors; 4 h p.i., listed as [64Cu]1)?
The Tumor-Liver ratio was 3.24 ± 0.14.

What about the Tumor-Muscle ratio (BxPC-3 xenograft tumors; 4 h p.i., listed as [64Cu]1) of the same compound?
Its Tumor-Muscle ratio is 7.95 ± 0.55.

And the Tumor-Blood ratio (BxPC-3 xenograft tumors; 24 h p.i.)?
The Tumor-Blood ratio was 15.41 ±3.77.

What about the Tumor-Kidney ratio (BxPC-3 xenograft tumors; 24 h p.i.) of the same compound?
The Tumor-Kidney ratio was 0.13 ± 0.06.

And the “Tumor-Lg Intestines ratio” value (BxPC-3 xenograft tumors; 24 h p.i.)?
Its value is 1.41 ±0.43.

And the Tumor-Liver ratio (BxPC-3 xenograft tumors; 24 h p.i.)?
The Tumor-Liver ratio was 2.39 ± 0.59.

And the Tumor-Muscle ratio (BxPC-3 xenograft tumors; 24 h p.i.)?
Its Tumor-Muscle ratio is 9.47 ±4.84.

What about the “Tumor-Sm Intestines ratio” value (BxPC-3 xenograft tumors; 24 h p.i.) of the same compound?
Its value is 1.75 ±0.52.

And the Tumor-Stomach ratio (BxPC-3 xenograft tumors; 24 h p.i.)?
Its Tumor-Stomach ratio is 1.19 ±0.02.

What about the Tumor-Blood ratio (BxPC-3 xenograft tumors; 48 h p.i.) of the same compound?
The Tumor-Blood ratio was 12.03± 1.44.

And the Tumor-Kidney ratio (BxPC-3 xenograft tumors; 48 h p.i.)?
Its Tumor-Kidney ratio is 0.15 ± 0.02.

What about the “Tumor-Lg Intestines ratio” value (BxPC-3 xenograft tumors; 48 h p.i.) of the same compound?
The value was 1.51 ± 0.58.

And the Tumor-Liver ratio (BxPC-3 xenograft tumors; 48 h p.i.)?
Its Tumor-Liver ratio is 1.51 ± 0.29.

What about the Tumor-Muscle ratio (BxPC-3 xenograft tumors; 48 h p.i.) of the same compound?
Its Tumor-Muscle ratio is 8.39 ± 3.59.

What about the “Tumor-Sm Intestines ratio” value (BxPC-3 xenograft tumors; 48 h p.i.) of the same compound?
Its value is 2.18 ± 0.91.

And the Tumor-Stomach ratio (BxPC-3 xenograft tumors; 48 h p.i.)?
The Tumor-Stomach ratio was 1.41 ± 0.79.

What about the “Fold higher liver uptake than [64Cu]2” value (BxPC-3 xenograft tumors; 72 h) of the same compound?
Its value is > 1.8 fold.

What about the Tumor-Blood ratio (BxPC-3 xenograft tumors; 72 h p.i.) of the same compound?
Its Tumor-Blood ratio is 10.07 ± 3.24.

What about the Tumor-Kidney ratio (BxPC-3 xenograft tumors; 72 h p.i.) of the same compound?
Its Tumor-Kidney ratio is 0.19 ± 0.08.

And the “Tumor-Lg Intestines ratio” value (BxPC-3 xenograft tumors; 72 h p.i.)?
The value was 1.75 ±0.48.

What about the Tumor-Liver ratio (BxPC-3 xenograft tumors; 72 h p.i.) of the same compound?
The Tumor-Liver ratio was 1.47 ± 0.47.

And the Tumor-Muscle ratio (BxPC-3 xenograft tumors; 72 h p.i.)?
Its Tumor-Muscle ratio is 8.11 ±3.02.

And the “Tumor-Sm Intestines ratio” value (BxPC-3 xenograft tumors; 72 h p.i.)?
Its value is 2.43 ±0.45.

And the Tumor-Stomach ratio (BxPC-3 xenograft tumors; 72 h p.i.)?
Its Tumor-Stomach ratio is 1.65 ±0.32.

What about the Kidneys uptake (BxPC-3 xenograft tumors; 72 h p.i.) of the same compound?
The Kidneys uptake was 20.0 ± 6.9 % ID/g.

What about the “Fold increase in tumor accumulation over non-ABM [64Cu]Cu DOTA-αvβ6-BP” value (BxPC-3 xenograft tumors; BxPC-3 tumor model) of the same compound?
The value was > 3 fold.

And the “Fold higher kidney uptake than [64Cu]2” value (BxPC-3 xenograft tumors; for at least 48 h)?
Its value is > 1.7 fold.

And the remaining at 1 h ([3]; 1 h)?
Its remaining at 1 h is 78%.

What about the remaining at 4 h ([3]; 4 h) of the same compound?
The remaining at 4 h was 58%.

What about the remaining at 24 h ([3]; 24 h) of the same compound?
Its remaining at 24 h is 14%.
